The source of these data is paper PMC7180452, “Purine and Purine Isostere Derivatives of Ferrocene: An Evaluation of ADME, Antitumor and Electrochemical Properties” (Molecules, 2020).

The nature of data set [1]: Turbidimetric kinetic solubility assay. The settings on record: for Kinetic Solubility: PBS, 1% DMSO, 37 °C, 2 h, estimated range; for Solubility classification: kinetic solubility, in words.
Description: The turbidimetric solubility assay, which allows a rapid determination of the kinetic solubility of newly synthesized compounds using small amounts of their DMSO solutions, was used to assess the kinetic solubility [38].
The compounds’ DMSO stock solutions in concentration of 10 mM were serially diluted by factor 3.3×, 3×, 3.3× and 3× in DMSO. Prepared solutions were spiked into phosphate-buffered saline (PBS, 100 mM) to obtain final compounds’ concentrations of 100, 30, 10, 3 and 1 µM (3 µL of prepared dilutions were spiked to 297 µL of PBS, with final DMSO content of 1%, v/v). All compounds were tested in two replicas per concentration. Prepared solutions were incubated at 37 °C for 2 h with gentle shaking. Blank solutions were also prepared by spiking DMSO in PBS buffer (1% of DMSO, v/v). […] Compound/control samples are compared to the blank solution. […] Results were expressed as an estimated solubility range (lower and upper bound).
The test system of data set [2] is cervical carcinoma (HeLa). Briefly: In vitro antiproliferative activity, HeLa. The data set is classed as cell-based, human. The settings on record: HeLa cells. The procedure: Antiproliferative activity of compounds 11a−11c, 12a−12c, 13a−13c, 14a−14c, 15a−15c, 16a, 23a−23c, 24a−24c, 25a−25c, 34a−34c and 35a−35c was evaluated in vitro on four human tumor cell lines (American Type Culture Collection, Manassas, VA, USA): metastatic colorectal adenocarcinoma (SW620), ductal pancreatic adenocarcinoma (CFPAC-1), hepatocellular carcinoma (HepG2) and cervical carcinoma (HeLa) as well as normal skin fibroblasts (HFF).

The subject of the next data set is MDCKII-hMDR1 cells. Briefly: Permeability and P-gp substrate assessment in MDCKII-hMDR1 cell monolayer. The data set is classed as in vitro ADME, canine. As to conditions: for Permeability classification: MDCKII-hMDR1, in words; for Efflux Ratio (BA/AB) / Papp (AB) / Papp (BA): without P-gp inhibitor; for Papp (AB) / Papp (BA): 10 µM, 60 min. The procedure: The Madin-Darby canine kidney cells with overexpressed human multidrug-resistant gene (MDCKII-hMDR1) have been frequently used to study bidirectional transport of compounds and assess P-gp substrate potential. Apparent permeability (Papp) values were determined from the amount permeated through the MDCKII-hMDR1 cell monolayer in both the apical-basolateral (AB) and basolateral-apical (BA) direction.
MDCKII-hMDR1 cell monolayer was used for determination of permeability and P-gp substrate assessment. MDCKII-hMDR1 cells (Solvo Biotechnology, Szeged, Hungary) were grown in the controlled atmosphere (37 °C, 95% humidity, 5% CO2) in MDCK cell culture medium containing Dulbecco’s Modified Eagle Medium (DMEM) + 10% Fetal bovine serum (FBS, inactivated) + 1% glutamax-100 + 1% antibiotic/antimycotic + 1% of Non-essential amino acids Minimum Essential Medium (MEM NEAA). Cultures were split every 3–4 days using 0.05% Trypsin-EDTA. Cells were seeded 4 days prior to the experiment in concentration of 0.3 × 10^6 cells mL^−1 and cultured in CO2 incubator. On the experiment day, cell monolayers were washed with Dulbecco’s phosphate buffer saline (D-PBS) and equilibrated for 45 min in CO2 incubator in D-PBS containing 1% DMSO (1% v/v) with or without Elacridar (2 µM). Compounds, in final concentration of 10 µM, were prepared in transport medium containing Lucifer yellow (100 µM), with DMSO contentment of 1% (v/v) and in the presence and without Elacridar. Lucifer yellow calibration curve was prepared by serial dilution (12 points, with 100 µM as the highest point). Monolayer integrity was examined by fluorescent measurement on a Microplate reader Infinite F500 (Tecan) by using an excitation of 485 nm and emission of 530 nm. Experiment was started by applying the solutions containing test compounds to apical and basolateral side of the cell monolayer. Starting compound concentration (C0) was sampled at the start of the experiment and apical and basolateral compartments were sampled after incubation at 37 °C with gentle shaking for 60 min. Compound were tested in duplicate. Amprenavir was used as a control with low permeability and as a P-gp substrate without inhibitor presence, turning into a highly permeable compound with the inhibitor present.
Samples were analyzed on an ABSciex API 4000 Triple Quadrupole Mass Spectrometer (Sciex, Division of MDS Inc., Toronto, ON, Canada) coupled to a UHPLC Nexera X2 (Shimadzu, Kyoto, Japan). Samples (1 µL) were injected onto a reversed phase HPLC column Luna Omega Polar C18, 30 × 2.1 mm i.d., 1.6 µm particle size (Phenomenex) which was kept at 50 °C. Aqueous solution was 0.1% formic acid in deionized water and the organic mobile phase was […]. Flow rate was kept at 0.7 mL min^−1 for all measurements. Fast-gradient elution was as follows: 2% of organic mobile phase through 0.15 min, from 2 to 95% of organic mobile phase (0.15−0.7 min), 95% of organic mobile phase (0.7−1.1 min), from 95 to 2% of organic mobile phase (1.1−1.11 min), and re-equilibration with 98% of aqueous mobile phase (1.11−1.5 min). Positive ion mode with turbo spray, an ion source temperature of 550 °C and a dwell time of 75 ms were utilized for mass spectrometric detection. Quantitation was performed using multiple reaction monitoring (MRM) at the specific transition corresponding to the compound of interest. Warfarin was used as an internal standard. The ratios between compound and internal standard peak areas were used instead of real compound concentration. Apparent permeability coefficient, Papp (nm s^−1) values were calculated by using the following Equation (1):Papp [nm s^−1] = (dQ/dT) × (1/C0) × (1/A)(1) where: dQ/dT = permeability rate; C0 = initial concentration in donor compartment; A = surface area of the cell monolayer (0.7 cm^2). […]

The nature of data set [3]: Metabolic stability in human liver microsomes. In kind it is in vitro ADME. As to conditions: for t1/2: 1 µM; for In Vivo CLh / In Vivo CLh (% LBF): human; for In Vivo CLh: predicted in vivo hepatic clearance; for In Vivo CLh (% LBF): predicted, % of liver blood flow. The procedure: (§1) Metabolic stability of compounds was assessed in human and mouse liver microsomes (Corning, Tewksbury, MA, USA). Compounds, in final concentration of 1 µM, were incubated in phosphate buffer (50 mM, pH 7.4) for 60 min at 37 °C together with liver microsomes and NADPH generating system (nicotinamide adenine dinucleotide phosphate (NADP, 0.5 mM), glucose-6-phosphate (G6P, 5 mM), glucose-6-phosphate dehydrogenase (1.5 U mL^−1) and magnesium chloride (0.5 mM)). Also, compounds were incubated without the presence of NADPH cofactor, as a buffer stability control. Metabolic activity of liver microsomes was verified by including testosterone and propranolol as positive controls, as well as caffeine as a negative control. Sampling was performed at six time points (0, 10, 20, 30, 45 and 60 min), followed by reaction termination by addition of acetonitrile/methanol mixture (2:1, v/v) containing dicofenac as internal standard. Samples were analyzed as previously described for samples from permeability assay. The in vitro half-life (t1/2) was calculated from the slope of the linear regression by plotting ln % remaining of parent compound against incubation time. In vitro intrinsic clearance, CLint was calculated from half-life using following Equation (3):(3) CLint [µL min^−1 mg^−1]=ln2/t1/2×mL per incubation/mg protein per incubation where 52.5 mg protein/g liver is used as a constant.
(§2) Predicted in vivo hepatic clearance, in vivo CLh was calculated as follows:(4) in vivo CLh [mL min^−1 kg^−1]=CLint×(mg protein/g liver)×Q×(LW/BW) /Q+(CLint×(mg protein/g liver)×(LW/BW)) where: LW/BW = liver weight/body weight [g kg^−1]; 25.7 (human), 87.5 (mouse); Q = LBF = liver blood flow [mL min^−1 kg^−1]; 21/1.26 (human), 131/7.86 (mouse).
(§3) Predicted in vivo hepatic clearance can be expressed as %LBF and calculated as follows:(5) in vivo CLh [%LBF]=in vivo CLh/LBF×100

Data set [4] is described as follows: Metabolic stability in mouse liver microsomes. The data set is classed as in vitro ADME. The settings on record: for t1/2: mouse liver microsomes, 1 µM; for In Vivo CLh / In Vivo CLh (% LBF): mouse; for In Vivo CLh: predicted in vivo hepatic clearance; for In Vivo CLh (% LBF): predicted, % of liver blood flow. The procedure: as §1, §2, §3

Molecules are shown by their SMILES. Entries after “also recorded” stand apart in the source; their conditions may differ.

On to `Clc1ncnc2c1ccn2Cc1cn(-[c-]2cccc2)nn1.[Fe+2].c1cc[cH-]c1` [Compound 11c, 4-Chloro-7-[1-(1-ferrocenyl-1,2,3-triazol-1-yl)methyl]-7H-pyrrolo[2,3-d]pyrimidine], for which the “Kinetic Solubility” value in data set [1] was 3 to 10 µM. The same compound registered an IC50 in data set [2] of 27.7 ± 3.23 µM. Also, in the data set with MDCKII-hMDR1 cells, the Permeability classification result is given as “moderate AB permeability”, the “Efflux Ratio (BA/AB)” value was 2.9, the “Papp (AB)” value is 5.3 ×10⁻⁶ cm/s and the “Papp (BA)” value is 14.9 ×10⁻⁶ cm/s. The t1/2 in data set [3] (human liver microsomes) is 4.1 min. In data set [3], the “In Vivo CLh” value is 24.3 mL/min/kg and the “In Vivo CLh (% LBF)” value is listed as 95 % LBF. For the same compound, in data set [4], the t1/2 is recorded as 1.3 min, the “In Vivo CLh” value was 25.6 mL/min/kg and the “In Vivo CLh (% LBF)” value is 99 % LBF.
For `CC([c-]1cccc1)n1cc(Cn2cnc3ncnc(Cl)c32)nn1.[Fe+2].c1cc[cH-]c1` (stereo not drawn) [Compound 15b, 6-Chloro-7-[1-(1-ferrocenyl-1-methylmethyl-1,2,3-triazol-4-yl)methyl]-7H-purine], in data set [1], the “Kinetic Solubility” value is given as over 100 µM and the Solubility classification result was “high solubility”. For the same compound, inhibition in data set [2] was half-maximal at 28.97 ± 0.09 µM (IC50). In addition, in the data set with MDCKII-hMDR1 cells, the Permeability classification entry was “moderate AB permeability”, the “Efflux Ratio (BA/AB)” value is on record as 10.7, the “Papp (AB)” value was determined as 3.2 ×10⁻⁶ cm/s and the “Papp (BA)” value turned out to be 33.2 ×10⁻⁶ cm/s. In data set [3] (human liver microsomes), this compound showed a t1/2 of 19.0 min. In data set [3], the “In Vivo CLh” value is 20.4 mL/min/kg and the “In Vivo CLh (% LBF)” value was 79 % LBF. Also, in data set [4], the t1/2 is reported as 2.9 min, the “In Vivo CLh” value was 25.4 mL/min/kg and the “In Vivo CLh (% LBF)” value was 99 % LBF.
`Clc1ncnc2c1ncn2Cc1cn(C[c-]2cccc2)nn1.[Fe+2].c1cc[cH-]c1` [Compound 13a, 6-Chloro-9-[1-(1-ferrocenymethyl-1,2,3-triazol-4-yl)methyl]-9H-purine]: in data set [1], the “Kinetic Solubility” value is recorded as over 100 µM and the Solubility classification result is listed as “high solubility”. In addition, the concentration for half-maximal inhibition (IC50) in data set [2] amounted to 25.2 ± 4.31 µM. In the data set with MDCKII-hMDR1 cells, the Permeability classification result is listed as “moderate to high AB permeability; also recorded: good permeability”, the “Efflux Ratio (BA/AB)” value worked out at 2.9, the “Papp (AB)” value was 8.3 ×10⁻⁶ cm/s and the “Papp (BA)” value came out at 23.8 ×10⁻⁶ cm/s. The compound further showed a t1/2 in data set [3] (human liver microsomes) of 38.6 min. Moreover, the Metabolic stability classification result in data set [3] (human liver microsomes, in words) is given as “good metabolic stability; also recorded: moderately stable; also recorded: moderate stability”. Moreover, in data set [3], the “In Vivo CLh” value was 16.8 mL/min/kg and the “In Vivo CLh (% LBF)” value is 65 % LBF. Moreover, in data set [4], the t1/2 is listed as 5.5 min, the “In Vivo CLh” value is 25.1 mL/min/kg and the “In Vivo CLh (% LBF)” value is reported as 98 % LBF.

As usually defined, the IC50 is the concentration that gives 50% inhibition. The low end stands for inhibition by little substance, the high end for a need for much substance.
